Source: ChEMBL document CHEMBL1139522, “Methyl pyropheophorbide-a analogues: potential fluorescent probes for the peripheral-type benzodiazepine receptor. Effect of central metal in photosensitizing efficacy” (J Med Chem, 2005)
Blank lines part the entries; values can stand above or below the molecule they belong to.

Tests used:
[1] = Displacement of [3H]PK11195 from peripheral benzodiazepine receptor
Mus musculus [2] = species on record: Mus musculus; experiment: In vitro photodynamic therapy efficacy (1.0 uM) in RIF tumor cells using MTT assay; expressed as light dose; assay type: functional
Mus musculus [3] = species on record: Mus musculus; experiment: In vitro photodynamic therapy efficacy (0.06 uM) in RIF tumor cells using MTT assay; expressed as light dose; assay type: functional

SMILES: C=Cc1c(C)c2[n]3c1=CC1=[N+]4C(=Cc5c(C)c6c7[n]5[Zn-2]34[N+]3=C(C=2)[C@@H](C)[C@H](CCC(=O)OC)C3=C7CC6=O)C(CC)=C1C (stereo partly drawn)
IC50 [1]: 2890 nM | LD50 (Mus musculus [2]): 0.7 J/cm2 | LD50 (Mus musculus [3]): >2 J/cm2

SMILES: C=Cc1c(C)c2cc3nc(c4c5nc(cc6[nH]c(cc1[nH]2)c(C)c6CC)C(C)=C5C(=O)C4)[C@@H](CCC(=O)NCCCCCCNc1ccc([N+](=O)[O-])c2nonc12)[C@@H]3C
IC50 [1]: 37200 nM | LD50 (Mus musculus [2]): >2 J/cm2 | LD50 (Mus musculus [3]): >2 J/cm2

IC50 [1]: 320 nM
SMILES: O=C(Cc1c[nH]c2ccccc12)NCCCCCCNc1ccc([N+](=O)[O-])c2nonc12

SMILES: CCCCCCOC(C)C1=C(C)c2cc3nc(c4c5[nH]c(cc6[nH]c(cc1n2)c(C)c6CC)c(C)c5C(=O)C4)[C@@H](CCC(=O)OC)[C@@H]3C (stereo partly drawn)
IC50 [1]: 17000 nM | LD50 (Mus musculus [3]): 0.43 J/cm2

IC50 [1]: 390 nM
SMILES: CCC(C)N(C)C(=O)c1cc2ccccc2c(-c2ccccc2Cl)n1 (stereo not drawn) [PK-11195]

SMILES: C=Cc1c(C)c2cc3nc(c4c5nc(cc6[nH]c(cc1[nH]2)c(C)c6CC)C(C)=C5C(=O)C4)[C@@H](CCC(=O)OC)[C@@H]3C
IC50 [1]: 1820 nM | LD50 (Mus musculus [2]): Toxic | LD50 (Mus musculus [3]): >2 J/cm2
